Data on seven compounds can be found in PMC9221509, “Discovery of a Novel Antimicrobial Peptide, Temporin-PKE, from the Skin Secretion of Pelophylax kl. esculentus, and Evaluation of Its Structure-Activity Relationships” (Biomolecules, 2022).

Values after ≈ are worked out from the molar mass of the structure shown. Like-named read-outs stand apart in the source and are kept apart here. Non-standard residues stand in square brackets, D forms with d. Residues, ends and D or L forms follow the SMILES beside them. No end group written: not given here.

Data set [1] deals with S. aureus (ATCC 6538). The data set is described as follows: microbe, parasite or virus in culture. It is filed as cell-based, Staphylococcus aureus. As to conditions: for MBC: ATCC 6538, 18 h; for MIC: ATCC 6538, 24 h. The method, then: (§1) The antimicrobial activities of peptides were evaluated against the Gram-positive bacteria, S. aureus (ATCC 6538), methicillin-resistant Staphylococcus aureus (MRSA) (NCTC 12493), Enterococcus faecalis (E. faecalis) (NCTC 12697); the Gram-negative bacteria, E. coli (ATCC CRM 8739), Klebsiella pneumoniae (K. pneumoniae) (ATCC 43816), Pseudomonas aeruginosa (P. aeruginosa) (ATCC CRM 9027); and the yeast, Candida albicans (C. albicans) (ATCC CRM 10231). Clinical isolates of MRSA (B042 V2E1 A), E. coli (ATCC BAA-2340), K. pneumoniae (ATCC BAA-1705), and P. aeruginosa (B004 V2S2 B) were also used to determine their antimicrobial activities. The suspension of microorganisms in the logarithmic growth phase with a specific final density (Gram-negative and Gram-positive bacteria: 5 × 10^5 CFU/mL; yeast: 1 × 10^6 CFU/mL) was incubated with different peptide concentrations from 1 µM to 512 µM at 37 °C for 24 h. PBS was used as the negative control, and norfloxacin and amphotericin B were selected as the positive control for bacteria and yeast, respectively. Since the Norfloxacin had weak activities against P. aeruginosa (B004 V2S2 B) and K. pneumoniae (ATCC BAA 1705), gentamicin was used as the positive control for these two bacterial strains. The absorbance of each well was obtained using a microplate reader (EL808, Biolise BioTek, Winooski, VT, USA) set at 550 nm wavelength. The MIC value was the lowest concentration of a peptide that inhibits visible bacterial growth. Once the MIC values were determined, an aliquot from the bacterial culture exposed to the peptide at or above its MIC value was inoculated on a Mueller Hinton agar (MHA) and was incubated at 37 for 18 h. The MBC value was the lowest concentration of a peptide that kills 99.9% of bacteria.

Data set [2] relates to C. albicans (ATCC CRM 10231). The data set is described as follows: organism not typed. The format is cell-based, Candida albicans. As to conditions: for MBC: ATCC CRM 10231, 18 h; for MIC: ATCC CRM 10231, 24 h. The method, then: as §1
Data set [3] has as its system MRSA (B042 V2E1 A). The data set is described as follows: microbe, parasite or virus in culture. The format is cell-based, methicillin-resistant Staphylococcus aureus. As to conditions: B042 V2E1 A; for MBC: 18 h; for MIC: 24 h. The method, then:
as §1

The subject of data set [4] is MRSA (NCTC 12493). The data set is described as follows: microbe, parasite or virus in culture. It is filed as cell-based, methicillin-resistant Staphylococcus aureus. As to conditions: for MBC: NCTC 12493, 18 h; for MIC: NCTC 12493, 24 h. How it is done:
as §1

Data set [5] deals with HCT-116 cells. The format is cell-based. To be noted: 24 h. The method, then: (§2) The cytotoxicity of the peptides against the human epidermal keratinocyte line, HaCaT, was tested using the MTT cell viability assay as described in a previous study. The 100 µL of the cell suspension in a complete DMEM medium with a density of 10,000 cells/mL was seeded in a 96-well plate and incubated overnight at 37 °C in a humidified 5% CO2 atmosphere. After 4 h of starvation in a serum-free medium, 100 μL of serial dilutions (from 10^−9 M to 10^−4 M) of temporin-PKE and its analogues was added to each well, and the plate was incubated for 24 h. The serum-free medium and 0.1% Triton X-100 were used as the negative and positive control, respectively. Then, MTT solution, at a volume of 10 μL, was added to each well, and the plate was incubated for 2 h. After this, the medium was replaced by 100 μL of DMSO, and plates were put in the shaking incubator for 15 min. The absorbance of each well was measured using a microplate reader (EL808, Biolise BioTek, Winooski, VT, USA) set to a wavelength of 570 nm. The equation used to calculate the viability of the cells is shown below: Cell viability (%)=A−Ab/An−Ab×100% where A represents the absorbance of each treatment group, Ab represents the average absorbance of the wells in the blank control group (cells not exposed to the test peptide and MTT), and An represents the average absorbance of the wells in the negative control group (cells not exposed to the test peptide).
(§3) The anti-proliferative activities of peptides against HCT-116, NCI-H838 (H838), U251MG, PC-3, and NCI-H157 cell lines were determined by MTT cell viability assay, and the details were described in Section 2.9.

The test system of data set [6] is NCI-H157 cells. It is filed as cell-based. As to conditions: 24 h. The method, then:
as §2, §3

Data set [7] relates to NCI-H838 (H838) cells. It is filed as cell-based. To be noted: 24 h. How it is done: as §2, §3
For data set [8], the system named is PC-3 cells. The format is cell-based. As to conditions: 24 h. The method, then:
as §2, §3

Data set [9] has as its system U251MG cells. The format is cell-based. As to conditions: 24 h. The method, then: as §2, §3
The test system of data set [10] is wax moth larvae. The data set is described as follows: Toxicity in wax moth larvae (uninfected). It is filed as in vivo, Galleria mellonella. To be noted: n = 9 in each group. The method, then: The antimicrobial activities of temporin-PKE and temporin-PKE-3K, in vivo, were studied in the wax moth larvae model. Wax moth larvae (Livefood UK Ltd., Rooks Bridge, UK), weighing 250 ± 25 mg, were divided into different groups (n = 9 in each group). […] After 2 h of exposure, 10 µL of peptide solution, with concentrations of 4, 8, and 16 mg/kg, was injected into the larvae in each group. PBS was utilised as the negative control, and 50 mg/kg vancomycin was selected as the positive control for MRSA. The survival rates of the larvae were recorded every 12 h for 120 h.

For the compound `CC[C@@H](C)[C@@H](NC(=O)[C@H](CCCCN)NC(=O)[C@@H]1CCCN1C(=O)[C@H](CC(C)C)NC(=O)[C@H](CC(C)C)NC(=O)[C@H](CO)NC(=O)[C@H](CO)NC(=O)[C@H](CC(C)C)NC(=O)[C@H](C)NC(=O)CNC(=O)[C@@H](NC(=O)[C@@H](NC(=O)[C@H](CC(C)C)NC(=O)[C@@H]1CCCN1C(=O)[C@H](CC(C)C)NC(=O)[C@@H](N)Cc1ccccc1)[C@@H](C)CC)[C@@H](C)CC)C(=O)N[C@@H](Cc1ccccc1)C(N)=O` [Temporin-PKE-i] (H-FLPLIIGALSSLLPK[dI]F-NH2), the MBC is 2 µM (≈ 3.68 µg/mL) in data set [1], over 512 µM in data set [2] (read-out: MBC), 4 µM (≈ 7.37 µg/mL) in data set [3] and 4 µM (≈ 7.37 µg/mL) in data set [4]. Moreover, the MIC is 2 µM (≈ 3.68 µg/mL) in data set [1], over 512 µM in [2] (read-out: MIC), 4 µM (≈ 7.37 µg/mL) in data set [3] and 4 µM (≈ 7.37 µg/mL) in [4]. The IC50 in [5] amounted to 3.07 µM; in data set [6], 2.94 µM; in data set [7] it was 5.28 µM; in data set [8], 3.35 µM; in [9] it was 4.46 µM.

As to FLPKIIGKLSSKLPKIF-NH2 [Temporin-PKE-4K], the MBC in data set [1] worked out at 32 µM; in data set [2] it was 64 µM; in data set [3], 16 µM; in [4] it was 32 µM. Moreover, the MIC in data set [1] worked out at 32 µM; in [2] it was 64 µM; in data set [3] it was 16 µM; in [4], 32 µM. Moreover, the IC50 in [5] was found to be 99.4 µM; in [6], 27.8 µM; in [7], 35.3 µM; in [8], 49.5 µM; in [9], 85.5 µM.

In the case of `CC[C@@H](C)[C@@H](NC(=O)[C@H](CCCCN)NC(=O)[C@@H]1CCCN1C(=O)[C@H](CC(C)C)NC(=O)[C@H](CC(C)C)NC(=O)[C@H](CO)NC(=O)[C@H](CO)NC(=O)[C@H](CC(C)C)NC(=O)[C@H](C)NC(=O)CNC(=O)[C@H](NC(=O)[C@H](NC(=O)[C@H](CC(C)C)NC(=O)[C@@H]1CCCN1C(=O)[C@H](CC(C)C)NC(=O)[C@@H](N)Cc1ccccc1)[C@H](C)CC)[C@H](C)CC)C(=O)N[C@@H](Cc1ccccc1)C(N)=O` [Temporin-PKE-3i] (H-FLPL[dI][dI]GALSSLLPK[dI]F-NH2), the MBC was found to be 32 µM (≈ 58.9 µg/mL) in data set [1], 256 µM (≈ 471 µg/mL) in data set [2] (read-out: MBC), 64 µM (≈ 118 µg/mL) in data set [3] and 64 µM (≈ 118 µg/mL) in data set [4]. The MIC in [1] was determined as 32 µM (≈ 58.9 µg/mL); in data set [3] it was 64 µM (≈ 118 µg/mL); in [4], 64 µM (≈ 118 µg/mL). Also, the IC50 in [5] amounted to 72.1 µM; in [6], 71.2 µM; in data set [7] it was 193 µM; in [8], 167 µM; in data set [9] it was 121 µM.

Take “FLPLIIGALSSKLPKIF-NH2 [Temporin-PKE-K12]”: the MBC was 4 µM in [1], over 512 µM in data set [2] (read-out: MBC), 4 µM in [3] and 4 µM in [4]. For the same compound, the MIC in [1] is 4 µM; in data set [2] (read-out: MIC), over 512 µM; in data set [3], 4 µM; in [4] it was 4 µM. In addition, the IC50 in data set [5] was found to be 22.1 µM; in data set [6] it was 24 µM; in data set [7], 22.7 µM; in data set [8], 27.3 µM; in data set [9] it was 25.8 µM.

For the compound FLPLIIGKLSSLLPKIF-NH2 [Temporin-PKE-2K], the MBC in [1] was 2 µM; in data set [2] (read-out: MBC), over 512 µM; in data set [3], 2 µM; in data set [4] it was 2 µM. Further, the MIC in data set [1] was 2 µM; in data set [2] (read-out: MIC), over 512 µM; in data set [3] it was 2 µM; in [4] it was 2 µM. For the same compound, the IC50 was 2.84 µM in data set [5]; 2.78 µM in [6]; 3.07 µM in data set [7]; 2.64 µM in [8]; 2.49 µM in data set [9].

As for FLPLIIGALSSLLPKIF-NH2 [Temporin-PKE], the MBC in data set [1] is 2 µM; in [2] (read-out: MBC), over 512 µM; in [3] (read-out: MBC) it was 8 µM; in data set [4], 2/2 μM. The MIC is 2 µM in data set [1], over 512 µM in data set [2] (read-out: MIC), 4 µM in [3] (read-out: MIC) and 2 µM in [4] (read-out: MIC). Further, the IC50 in data set [5] came out at 21.3 µM; in data set [6] it was 17.4 µM; in data set [7], 16.4 µM; in data set [8], 7.29 µM; in [9], 23.2 µM. In addition, the “mortality of larvae treated with peptide” value in [10] (highest test concentration, late stage) worked out at 50%.

Consider FLPKIIGKLSSLLPKIF-NH2 [Temporin-PKE-3K], for which the MBC in data set [1] is 2 µM; in data set [2] (read-out: MBC) it was 64 µM; in data set [3] it was 2 µM; in [4], 2/2 μM. The MIC is 2 µM in data set [1], 32 µM in data set [2] (read-out: MIC), 2 µM in data set [3] and 2 µM in [4] (read-out: MIC). For the same compound, the IC50 in data set [5] was 0.38 µM; in data set [6], 3.29 µM; in data set [7], 0.51 µM; in data set [8], 3.01 µM; in [9], 2.83 µM. The “survival of larvae injected with peptide” value in data set [10] (doses of 16 mg/kg) is listed as “totally survived”.
